Calls of active or inactive are those of the source.
Tests used:
[1] = target: T1, Calpain-2 catalytic subunit (Sus scrofa, UniProt P43367); experiment: m-calpain protease blockers, concentration series – biochemical, fluorogenic peptide substrate, dose response (AID 1420); assay type: functional
T1 sequence (P43367 whole entry): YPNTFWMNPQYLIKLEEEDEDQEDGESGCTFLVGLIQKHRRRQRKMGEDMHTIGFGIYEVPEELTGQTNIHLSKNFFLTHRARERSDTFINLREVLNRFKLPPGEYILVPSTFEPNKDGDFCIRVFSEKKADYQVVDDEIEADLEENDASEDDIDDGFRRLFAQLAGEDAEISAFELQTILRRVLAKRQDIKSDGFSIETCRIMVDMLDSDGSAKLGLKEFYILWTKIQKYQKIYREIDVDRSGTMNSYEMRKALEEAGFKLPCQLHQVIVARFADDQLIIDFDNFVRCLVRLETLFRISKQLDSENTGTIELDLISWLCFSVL

[2] = reduction of Shn3 3'UTR-driven luciferase in osteoblasts – cell-based, Clone20 osteoblasts, firefly luciferase, cherry-picked, dose response (AID 624132); assay type: functional;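 also: firefly luciferase luminescence from reporter carrying the Shn3 3'UTR in osteoblasts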
[3] = viability of uninfected HEp-2 cells – cell-based, HTS, cytotoxicity control for RSV inhibitor project, dose response (AID 2410); assay type: functional; conditions: human respiratory syncytial virus
[4] = non-specific 3'UTR reporter inhibition in Clone20-Shn3RL – cell-based, Renilla luciferase, cherry-picked, counter-screen for Shn3 inhibitor project, dose response (AID 624133); assay type: functional
[5] = system: Vero; experiment: cells; assay type: functional; conditions: Chlorocebus sabaeus
[6] = fluconazole-exposed Candida albicans growth modulators – fluorescence, retest, confirmation (AID 2467); assay type: functional, cell-based
[7] = target: Luciferin 4-monooxygenase (Photinus pyralis, UniProt P08659); experiment: inhibition of purified Photinus pyralis luciferase – biochemical, luminescence, dose response (AID 1891)
[8] = Luminescence Cell-Based Dose Confirmation HTS to Identify Inhibitors of Platelet Dense Granule Release. [Related pubchem assays: 1663 (Primary HTS), 1678 (Summary of Project)]; assay type: functional
[9] = NIH-3T3 fibroblast cytotoxicity, dose response, cytotoxicity control, cell-based, fluorescence, Alamar Blue, secondary assay (AID 2327); assay type: functional;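 also: NIH-3T3 mouse fibroblasts cultured with fluconazole at 8 µg/mL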
[10] = target: T2, Fatty acid synthase (Homo sapiens, UniProt P49327); experiment: inhibition of human FAS-TE enzyme activity – biochemical, kinetic fluorescence intensity, dose response (AID 624326); assay type: functional;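 also: rate of fluorescence rise from hydrolysis of a fluorogenic O-methyl fluorescein ester substrate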
[11] = target: T2, Fatty acid synthase; experiment: inhibition of human FAS-TE enzyme activity – biochemical, endpoint fluorescence intensity, uHTS hits, dose response (AID 624327); assay type: functional;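 also: fluorescence from hydrolysis of an O-methyl fluorescein acyl ester substrate by the enzyme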
[12] = target: FAD-linked sulfhydryl oxidase ALR (Homo sapiens, UniProt P55789); experiment: ALR-catalysed DTT oxidation blockers – biochemical, H2O2 detection, luminescence, cherry-pick, dose response (AID 493248)
[13] = system: H4; experiment: Luminescence Cell-Based Dose Response HTS to Identify Activators of 5'UTR Stem-Loop Driven Prion Protein mRNA Translation in H4 Neuroglioblastoma Cells. [Related pubchem assays: 1829 (Project Summary), 1814 (Primary HTS)]; assay type: functional; conditions: Homo sapiens
[14] = Luminescence Cell-Based Dose Response HTS to Identify Activators of Luciferase Translation or Activity in H4 […] Cells. [Related pubchem assays: 1829 (Project Summary), 1814 (Primary HTS)]; assay type: functional
[15] = cells; assay type: functional, cell-based
[16] = cells; assay type: functional, cell-based; remark: listed apart in the source

Chain of FAD-linked sulfhydryl oxidase ALR (P55789 whole entry): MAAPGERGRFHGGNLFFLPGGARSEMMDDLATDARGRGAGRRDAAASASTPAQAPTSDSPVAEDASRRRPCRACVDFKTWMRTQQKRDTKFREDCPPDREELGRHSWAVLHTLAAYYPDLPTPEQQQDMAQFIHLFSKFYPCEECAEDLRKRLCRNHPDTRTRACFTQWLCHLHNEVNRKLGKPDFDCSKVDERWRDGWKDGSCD
T2 sequence (P49327 whole entry): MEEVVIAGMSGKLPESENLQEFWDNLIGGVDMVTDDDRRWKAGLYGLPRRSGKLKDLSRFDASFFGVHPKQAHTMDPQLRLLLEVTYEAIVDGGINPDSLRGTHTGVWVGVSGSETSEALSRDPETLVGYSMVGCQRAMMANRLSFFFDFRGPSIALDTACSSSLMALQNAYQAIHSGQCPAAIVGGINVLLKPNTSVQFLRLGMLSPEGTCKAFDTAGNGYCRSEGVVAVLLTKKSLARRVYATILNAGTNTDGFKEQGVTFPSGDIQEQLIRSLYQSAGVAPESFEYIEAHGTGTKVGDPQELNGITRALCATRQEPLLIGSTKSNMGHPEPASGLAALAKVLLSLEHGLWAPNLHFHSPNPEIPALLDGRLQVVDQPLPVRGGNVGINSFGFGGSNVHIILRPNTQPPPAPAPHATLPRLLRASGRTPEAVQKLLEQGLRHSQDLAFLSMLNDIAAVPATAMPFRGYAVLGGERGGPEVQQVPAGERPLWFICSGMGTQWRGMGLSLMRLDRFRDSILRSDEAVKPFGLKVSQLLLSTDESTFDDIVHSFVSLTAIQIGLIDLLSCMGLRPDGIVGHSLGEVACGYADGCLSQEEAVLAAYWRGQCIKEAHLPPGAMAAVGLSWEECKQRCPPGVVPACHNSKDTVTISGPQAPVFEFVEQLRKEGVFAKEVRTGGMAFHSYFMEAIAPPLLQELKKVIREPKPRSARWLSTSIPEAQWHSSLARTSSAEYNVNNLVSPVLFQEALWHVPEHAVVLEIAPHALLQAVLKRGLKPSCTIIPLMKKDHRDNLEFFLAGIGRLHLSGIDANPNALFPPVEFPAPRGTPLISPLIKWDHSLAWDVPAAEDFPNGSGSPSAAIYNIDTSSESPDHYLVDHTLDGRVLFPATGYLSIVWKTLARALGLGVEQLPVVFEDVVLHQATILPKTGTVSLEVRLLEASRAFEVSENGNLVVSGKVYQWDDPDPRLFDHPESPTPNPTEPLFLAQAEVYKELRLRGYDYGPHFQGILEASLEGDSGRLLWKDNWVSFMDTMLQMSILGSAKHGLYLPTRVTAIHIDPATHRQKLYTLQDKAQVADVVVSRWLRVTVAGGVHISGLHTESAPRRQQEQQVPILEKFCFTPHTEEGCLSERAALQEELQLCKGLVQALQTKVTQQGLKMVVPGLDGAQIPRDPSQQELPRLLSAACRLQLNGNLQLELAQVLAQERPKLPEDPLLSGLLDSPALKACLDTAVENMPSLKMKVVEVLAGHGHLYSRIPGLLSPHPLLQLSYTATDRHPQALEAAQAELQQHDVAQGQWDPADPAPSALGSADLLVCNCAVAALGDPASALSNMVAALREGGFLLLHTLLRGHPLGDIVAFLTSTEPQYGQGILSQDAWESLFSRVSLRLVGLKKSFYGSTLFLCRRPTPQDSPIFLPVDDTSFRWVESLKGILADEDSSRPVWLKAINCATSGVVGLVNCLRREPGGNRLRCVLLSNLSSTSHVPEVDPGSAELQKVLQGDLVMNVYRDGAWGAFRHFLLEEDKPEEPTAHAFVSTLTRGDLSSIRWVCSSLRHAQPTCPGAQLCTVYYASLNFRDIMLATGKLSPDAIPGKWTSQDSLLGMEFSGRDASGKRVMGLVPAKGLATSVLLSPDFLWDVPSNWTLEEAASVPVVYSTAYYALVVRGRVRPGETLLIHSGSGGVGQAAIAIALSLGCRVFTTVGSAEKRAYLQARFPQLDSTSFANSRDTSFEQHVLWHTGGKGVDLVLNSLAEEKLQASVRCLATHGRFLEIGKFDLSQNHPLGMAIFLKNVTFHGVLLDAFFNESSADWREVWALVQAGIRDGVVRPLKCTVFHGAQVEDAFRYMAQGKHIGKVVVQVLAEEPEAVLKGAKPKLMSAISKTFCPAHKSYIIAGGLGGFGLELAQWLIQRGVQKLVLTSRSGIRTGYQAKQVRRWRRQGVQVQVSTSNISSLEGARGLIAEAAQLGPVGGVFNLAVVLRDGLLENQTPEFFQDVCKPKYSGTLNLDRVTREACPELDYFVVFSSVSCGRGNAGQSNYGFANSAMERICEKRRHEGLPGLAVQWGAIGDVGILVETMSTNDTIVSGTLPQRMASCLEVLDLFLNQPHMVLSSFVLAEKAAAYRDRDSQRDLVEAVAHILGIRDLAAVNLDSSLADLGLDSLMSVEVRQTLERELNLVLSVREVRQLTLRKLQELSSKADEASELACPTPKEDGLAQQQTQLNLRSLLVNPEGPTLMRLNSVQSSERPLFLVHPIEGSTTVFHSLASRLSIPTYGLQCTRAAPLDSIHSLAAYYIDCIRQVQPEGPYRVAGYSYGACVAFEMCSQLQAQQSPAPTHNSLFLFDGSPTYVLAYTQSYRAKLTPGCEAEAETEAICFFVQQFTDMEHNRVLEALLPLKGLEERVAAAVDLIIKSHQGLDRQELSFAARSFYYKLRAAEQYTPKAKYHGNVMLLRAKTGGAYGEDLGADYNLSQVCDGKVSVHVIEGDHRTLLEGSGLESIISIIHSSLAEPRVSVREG
Chain of Luciferin 4-monooxygenase (P08659 whole entry): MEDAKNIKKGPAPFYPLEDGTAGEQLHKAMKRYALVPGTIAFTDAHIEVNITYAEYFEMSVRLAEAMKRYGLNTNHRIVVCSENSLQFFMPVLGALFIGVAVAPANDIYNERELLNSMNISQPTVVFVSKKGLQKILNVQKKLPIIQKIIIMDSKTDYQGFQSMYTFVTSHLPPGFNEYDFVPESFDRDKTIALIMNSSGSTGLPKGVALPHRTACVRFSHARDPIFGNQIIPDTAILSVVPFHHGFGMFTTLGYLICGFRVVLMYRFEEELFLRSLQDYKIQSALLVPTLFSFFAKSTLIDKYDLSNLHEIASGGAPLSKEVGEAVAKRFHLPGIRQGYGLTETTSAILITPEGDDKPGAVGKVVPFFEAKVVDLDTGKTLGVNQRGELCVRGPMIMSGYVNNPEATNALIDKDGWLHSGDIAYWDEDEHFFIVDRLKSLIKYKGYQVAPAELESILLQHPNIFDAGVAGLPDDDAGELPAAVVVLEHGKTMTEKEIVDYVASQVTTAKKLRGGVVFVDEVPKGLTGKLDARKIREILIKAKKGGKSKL

Structure (SMILES): Cc1ccccc1NC(=O)Cn1c(=O)n(Cc2ccccc2)c(=O)c2c(C)c(C)sc21
- IC50 [1]: 15 µM (not active)

Structure (SMILES): CCc1c(C)nc2cc(-c3ccc(OC)c(OC)c3)nn2c1NCC1CC1
- AC50 [2]: 5.11 µM (active)
- CC50 [3]: 13.7 µM (active)
- AC50 [4]: 5.44 µM (active)

Structure (SMILES): Cc1c(C(=O)N2CCOCC2)sc(NC(=O)CCl)c1C#N
- CC50 [5]: 22.3 µM (active)

Structure (SMILES): CCCOc1cccc(-c2cc(C(=O)NN=C(S)NCC)c3ccccc3n2)c1
- EC50 [6]: > 38 µM (not active)
- EC50 [7]: 1.41 µM (active)
- EC50 [8]: > 112 µM (not active)
- EC50 [9]: > 160 µM (inactive)

Structure (SMILES): Cc1nc(Nc2ccccc2Cl)sc1C(=O)Nc1ccccc1
- EC50 [6]: > 38 µM (not active)
- EC50 [9]: 28.6 µM (active)

Structure (SMILES): CN(C(=O)COC(=O)c1cc([N+](=O)[O-])ccc1Cl)c1ccccc1
- IC50 [10]: 7 µM (active)
- IC50 [11]: 9.59 µM (active)

Structure (SMILES): CN(Cc1ccccc1)S(=O)(=O)c1ccc(C(=O)Nc2nnc(C3CC3)o2)cc1
- EC50 [6]: 1.76 µM (active)
- EC50 [9]: > 160 µM (inactive)

Structure (SMILES): COc1cccc(N2CCN(CC(=O)NCc3cccs3)CC2)c1
- AC50 [12]: 4.1 µM (active)

Structure (SMILES): CCn1cnc2c1c(=O)n(CC(=O)Nc1ccc3c(c1)OC(F)(F)O3)c(=O)n2Cc1ccccc1
- IC50 [1]: < 0.4 µM (not active)

Structure (SMILES): O=C(/C=C/c1cc([N+](=O)[O-])ccc1OC(F)F)NCc1ccc(F)cc1
- IC50 [10]: 0.999 µM (active)
- IC50 [11]: 1.33 µM (active)

Structure (SMILES): O=C(Nc1cnc2sccn2c1=O)c1ccccc1Cl
- EC50 [13]: > 120 µM (not active)
- EC50 [14]: 0.199 µM (active)

Structure (SMILES): CC(C)C[C@H](NC(=O)c1[nH]cnc1C(=O)NCCCCCNC(=O)OC(C)(C)C)C(=O)OC(C)(C)C
- IC50 [1]: 26.6 µM (not active)

Structure (SMILES): Cc1ccccc1NC(=O)Cc1nc(CCl)cs1
- AC50 [12]: 10.8 µM (active)

Structure (SMILES): O=C(CCNC(=O)c1ccc([N+](=O)[O-])cc1)NCCC1=CCCCC1
- IC50 [10]: 3.4 µM (active)
- IC50 [11]: 3.75 µM (active)

Structure (SMILES): CC(C)Cn1c(N)c(C(=O)COC(=O)c2ccc(Cl)cc2)c(=O)n(C)c1=O
- IC50 [1]: 2.21 µM (active)

Structure (SMILES): Cc1ccccc1NC(=O)CN(C)S(=O)(=O)c1ccc(-c2ccc(O)nn2)s1
- EC50 [15]: > 350 µM (not active)
- EC50 [16]: > 350 µM (not active)

Structure (SMILES): COc1ccc(NCc2nc3ccccc3n2C)cc1
- AC50 [12]: 3.46 µM (active)

Structure (SMILES): c1ccc(OCc2nc(-c3ccncc3)no2)cc1
- EC50 [15]: > 350 µM (not active)
- EC50 [16]: > 350 µM (not active)

Structure (SMILES): COc1ccccc1NC(=O)COC(=O)C12CC3CC(CC(Cl)(C3)C1)C2
- IC50 [1]: 13 µM (not active)

Structure (SMILES): CCCCCCCC1CC(=O)C=C(C)C1C(=O)OCC (centres undefined)
- EC50 [15]: > 350 µM (not active)
- EC50 [16]: > 350 µM (not active)

Structure (SMILES): CC(C)NC(=O)COC(=O)c1cccc(NS(=O)(=O)/C=C/c2ccccc2)c1
- EC50 [9]: > 160 µM (inactive)

Structure (SMILES): COc1cc(CNc2ncc(-c3ccc(Cl)cc3)n2C)cc(OC)c1OC
- AC50 [12]: 4.59 µM (active)

Structure (SMILES): C=CCOc1ccc(CN(C)CC(O)COc2cccc3ccccc23)cc1 (centres undefined)
- CC50 [3]: 26.1 µM (active)

Structure (SMILES): O=C(NCc1ccc2c(c1)OCO2)c1ccc2c(c1)N(Cc1c(F)cccc1Cl)C(=O)CS2
- IC50 [10]: 6.15 µM (active)
- IC50 [11]: 10.3 µM (active)
